The text below walks through data of PubChem BioAssay AID330 (DTP/NCI, 2004).

Values joined by “and” are separate entries in the source; they are usually repeats but may differ in a detail not shown here. Equal entries are not always repeated. Inconclusive results and toxic doses are left out.

For this assay, the system named is P388 leukemia ip, CD2F1 mice, survival T/C. Briefly: NCI In Vivo Anticancer Drug Screen. Data for tumor model P388 Leukemia (intraperitoneal) in CD2F1 (CDF1) mice. The conditions noted are these: endpoint: median survival time, higher = longer survival. The method in brief:
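Mice carrying the transplanted tumor received test compound or vehicle. Survival was recorded in each group, and the value is the treated-group measurement divided by that of the vehicle-treated control group.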

Where [1] appears, read: dose: 25.0 mg/kg/injection, schedule: Q01DX009 (ip), vehicle: Klucel (hydroxypropylcellulose) (HPC).
The mark [2] stands for this setting: dose: 50.0 mg/kg/injection, schedule: Q01DX009 (ip), vehicle: Klucel (hydroxypropylcellulose) (HPC).
The mark [3] stands for this setting: dose: 100.0 mg/kg/injection, schedule: Q01DX009 (ip), vehicle: Klucel (hydroxypropylcellulose) (HPC).
Where [4] appears, read: dose: 200.0 mg/kg/injection, schedule: Q01DX009 (ip), vehicle: Klucel (hydroxypropylcellulose) (HPC).
The mark [5] stands for this setting: dose: 50.0 mg/kg/injection, schedule: Q01DX005 (ip), vehicle: saline with Tween-80.
The mark [6] stands for this setting: dose: 100.0 mg/kg/injection, schedule: Q01DX005 (ip), vehicle: saline with Tween-80.
[7] abbreviates: dose: 200.0 mg/kg/injection, schedule: Q01DX005 (ip), vehicle: saline with Tween-80.
[8] abbreviates: dose: 50.0 mg/kg/injection, schedule: Q01DX005 (ip), vehicle: saline.
Where [9] appears, read: dose: 100.0 mg/kg/injection, schedule: Q01DX005 (ip), vehicle: saline.
Setting [10] is: dose: 200.0 mg/kg/injection, schedule: Q01DX005 (ip), vehicle: saline.
The mark [11] stands for this setting: dose: 50.0 mg/kg/injection, schedule: Q01DX009 (ip), vehicle: saline with Tween-80.
Setting [12] is: dose: 100.0 mg/kg/injection, schedule: Q01DX009 (ip), vehicle: saline with Tween-80.
Setting [13] is: dose: 200.0 mg/kg/injection, schedule: Q01DX009 (ip), vehicle: saline with Tween-80.
Where [14] appears, read: dose: 50.0 mg/kg/injection, schedule: Q01DX009 (ip), vehicle: saline.
Where [15] appears, read: dose: 100.0 mg/kg/injection, schedule: Q01DX009 (ip), vehicle: saline.
The mark [16] stands for this setting: dose: 200.0 mg/kg/injection, schedule: Q01DX009 (ip), vehicle: saline.
The mark [17] stands for this setting: dose: 25.0 mg/kg/injection, schedule: Q01DX009 (ip), vehicle: saline with Tween-80.
Where [18] appears, read: dose: 60.0 mg/kg/injection, schedule: Q01DX005 (ip), vehicle: saline with Tween-80.
The mark [19] stands for this setting: dose: 120.0 mg/kg/injection, schedule: Q01DX005 (ip), vehicle: saline with Tween-80.
Where [20] appears, read: dose: 240.0 mg/kg/injection, schedule: Q01DX005 (ip), vehicle: saline with Tween-80.
[21] abbreviates: dose: 60.0 mg/kg/injection, schedule: Q01DX005 (ip), vehicle: Klucel (hydroxypropylcellulose) (HPC).
Where [22] appears, read: dose: 120.0 mg/kg/injection, schedule: Q01DX005 (ip), vehicle: Klucel (hydroxypropylcellulose) (HPC).

In the case of `Cc1ccc(S(=O)(=O)N/N=C/c2ccccc2)cc1`, the T/C is, setting by setting: under setting [1], 95 % of control; under setting [2], 94 % of control; under setting [3], 95 % of control; under setting [4], 97 % of control; (dose: 400.0 mg/kg/injection, schedule: Q01DX009 (ip), vehicle: Klucel (hydroxypropylcellulose) (HPC)) 109 % of control.
Consider `CC(C)C(NC(=O)C1CSC(C)(C)N1C=O)C(=O)O` (stereo unspecified), for which the T/C was 102 % of control under setting [5], 100 % of control under setting [6] and 102 % of control under setting [7].
For `O=COCC1(c2ccncc2)OCCO1`, the T/C by setting is: under setting [8], 108 % of control; under setting [9], 107 % of control; under setting [10], 99 % of control.
Turning to `Cc1ccc2c(c1)sc1nncn12`, the T/C runs as follows: under setting [2], 94 % of control; under setting [3], 105 % of control.
Take `CC(=O)Nc1nc(N)nc2c1CC(N(Cc1ccc(Cl)cc1)C(C)=O)CC2` (stereo unspecified): the T/C under setting [11] was 108 % of control, the T/C under setting [12] was 119 % of control and the T/C under setting [13] is 154 % of control.
On to `O=C1CNCC(=O)N1`, for which the T/C was 110 % of control under setting [8], 99 % of control under setting [9] and 100 % of control under setting [10].
Regarding `C=C1C[C@H](C2OC3OC(C)(C)OC3C2OCc2ccccc2)OC1=O` (stereo partly specified), the T/C was 97 % of control under setting [5], 98 % of control under setting [6] and 100 % of control under setting [7].
For `CC(C)C(NC(=O)c1ccccc1)C(=O)O` (stereo unspecified), the T/C by setting is: under setting [5], 98 % of control; under setting [6], 93 % of control; under setting [7], 88 % of control.
Take `CCOC(=O)c1ccccc1OP(=O)(N(C)C)N(C)C`: the T/C was 99 % of control and 100 % of control and 108 % of control under setting [11]; 99 % of control and 109 % of control and 97 % of control under setting [12]; 99 % of control and 103 % of control and 109 % of control under setting [13].
In the case of `N#CNC(=O)c1cccnc1`, the T/C runs as follows: under setting [14], 99 % of control; under setting [15], 94 % of control; under setting [16], 99 % of control.
For `CNC(=O)Nc1nccs1`, the T/C reads like this: under setting [11], 105 % of control; under setting [12], 96 % of control; under setting [13], 97 % of control.
For `CC(=O)OCC1OC(Sc2nnc(-c3ccccc3)c(-c3ccccc3)n2)C(OC(C)=O)C(OC(C)=O)C1OC(C)=O` (stereo unspecified), in that order: 107 % of control, 98 % of control and 100 % of control.
Regarding `c1ccc(-c2ncc3n(-c4ccccc4)cnn23)cc1`, the T/C was 95 % of control (dose: 100.0 mg/kg/injection, schedule: Q04DX002 (ip), vehicle: saline with Tween-80); 86 % of control (dose: 200.0 mg/kg/injection, schedule: Q04DX002 (ip), vehicle: saline with Tween-80); 89 % of control (dose: 400.0 mg/kg/injection, schedule: Q04DX002 (ip), vehicle: saline with Tween-80).
In the case of `CC(C)(C)c1ccc(C(=O)NNC(O)C(F)(F)F)cc1` (stereo unspecified), the T/C is 101 % of control (dose: 100.0 mg/kg/injection, schedule: Q04DX002 (ip), vehicle: Klucel (hydroxypropylcellulose) (HPC)) and 103 % of control (dose: 200.0 mg/kg/injection, schedule: Q04DX002 (ip), vehicle: Klucel (hydroxypropylcellulose) (HPC)).
Regarding `CN1C(=O)C(n2[nH]c(=O)n(-c3ccc(Cl)cc3)c2=O)C(=O)N(C)C1=O`, the T/C by setting is: under setting [2], 100 % of control; under setting [3], 100 % of control; under setting [4], 97 % of control.
As to `CCOC(=O)/C(C#N)=C\c1ccc(/C=C(\C#N)C(=O)OCC)cc1`, the T/C by setting is: under setting [17], 90 % of control; under setting [11], 100 % of control; under setting [12], 90 % of control; (dose: 100.0 mg/kg/injection, schedule: Q04DX003 (ip), vehicle: saline with Tween-80) 95 % of control.
In the case of `Cc1ccc(S(=O)(=O)Nn2nnc(-c3ccccc3)n2)cc1`, the T/C is, setting by setting: (dose: 50.0 mg/kg/injection, schedule: Q04DX003 (ip), vehicle: Klucel (hydroxypropylcellulose) (HPC)) 98 % of control; (dose: 100.0 mg/kg/injection, schedule: Q04DX003 (ip), vehicle: Klucel (hydroxypropylcellulose) (HPC)) 102 % of control; (dose: 200.0 mg/kg/injection, schedule: Q04DX003 (ip), vehicle: Klucel (hydroxypropylcellulose) (HPC)) 102 % of control.
In the case of `Cc1nc2[nH]cc(C)c2c(=O)[nH]1`, the T/C was 103 % of control under setting [18], 97 % of control under setting [19] and 105 % of control under setting [20].
In the case of `CC(=O)CC(c1ccc(Cl)cc1)C(C#N)c1ccccc1` (stereo unspecified), the T/C under setting [2] is 89 % of control, the T/C under setting [3] was 91 % of control and the T/C under setting [4] is 86 % of control.
Turning to `CC1(C)CCCC2(C)OC(=O)C=C12` (stereo unspecified), the T/C by setting is: (dose: 3.12 mg/kg/injection, schedule: Q01DX005 (ip), vehicle: distilled water + Tween-80) 105 % of control; (dose: 6.25 mg/kg/injection, schedule: Q01DX005 (ip), vehicle: distilled water + Tween-80) 104 % of control; (dose: 12.5 mg/kg/injection, schedule: Q01DX005 (ip), vehicle: distilled water + Tween-80) 94 % of control.
As for `[O-]/[N+]1=[N+](\[O-])c2ccccc2CCCc2ccccc21`, the T/C was 102 % of control under setting [18], 100 % of control under setting [19] and 88 % of control under setting [20].
In the case of `CCN(CC)CCC#N`, the T/C is 94 % of control under setting [14], 87 % of control under setting [15] and 88 % of control under setting [16].
Turning to `COc1cccc(CN2CCCN(/N=C/c3c4c(O)c5c(O)c(C)c6c(c5c3O)C(=O)C(C)(O/C=C/C(OC)C(C)C(OC(C)=O)C(C)C(O)C(C)C(O)C(C)/C=C/C=C(/C)C(=O)N4)O6)CC2)c1` (stereo unspecified), the T/C by setting is: (dose: 12.5 mg/kg/injection, schedule: Q01DX009 (ip), vehicle: saline with Tween-80) 108 % of control; under setting [17], 109 % of control; under setting [11], 103 % of control and 108 % of control; under setting [12], 115 % of control.
For `CCN(CC)c1c(C)nnc2c3c(-c4ccccc4)c(-c4ccccc4)nnc3nn12`, the T/C by setting is: (dose: 50.0 mg/kg/injection, schedule: Q04DX003 (ip), vehicle: saline with Tween-80) 86 % of control; (dose: 200.0 mg/kg/injection, schedule: Q04DX003 (ip), vehicle: saline with Tween-80) 86 % of control; (dose: 400.0 mg/kg/injection, schedule: Q04DX003 (ip), vehicle: saline with Tween-80) 91 % of control.
With `O=C1Nc2ccccc2C(=O)C1(Cc1ccccc1)C(=O)c1ccccc1` (stereo unspecified), the T/C reads like this: under setting [21], 99 % of control; under setting [22], 105 % of control; (dose: 240.0 mg/kg/injection, schedule: Q01DX005 (ip), vehicle: Klucel (hydroxypropylcellulose) (HPC)) 97 % of control.
On to `FC(F)(F)c1nn2c(-c3cnns3)nnc2s1`, for which the T/C (dose: 100.0 mg/kg/injection, schedule: Q01DX001 (ip), vehicle: Klucel (hydroxypropylcellulose) (HPC)) is 98 % of control; the T/C (dose: 200.0 mg/kg/injection, schedule: Q01DX001 (ip), vehicle: Klucel (hydroxypropylcellulose) (HPC)) was 99 % of control; the T/C (dose: 400.0 mg/kg/injection, schedule: Q01DX001 (ip), vehicle: Klucel (hydroxypropylcellulose) (HPC)) is 104 % of control.
For the molecule `COc1ccc(OC)c(NC(=O)CCCC(=O)C(C#N)c2ccccc2C)c1` (stereo unspecified), the T/C is, setting by setting: under setting [18], 105 % of control; under setting [19], 105 % of control; under setting [20], 104 % of control.
`CC1=NC(C#N)=C(C#N)N=C(C)C1`: the T/C (dose: 12.5 mg/kg/injection, schedule: Q01DX009 (ip), vehicle: Klucel (hydroxypropylcellulose) (HPC)) is 93 % of control; the T/C under setting [1] is 94 % of control; the T/C under setting [2] is 93 % of control.
Regarding `O=C(NC(=S)c1cccs1)NS(=O)(=O)c1ccc(Cl)cc1`, the T/C runs as follows: (dose: 25.0 mg/kg/injection, schedule: Q01DX001 (ip), vehicle: saline with Tween-80) 98 % of control; (dose: 50.0 mg/kg/injection, schedule: Q01DX001 (ip), vehicle: saline with Tween-80) 98 % of control; (dose: 100.0 mg/kg/injection, schedule: Q01DX001 (ip), vehicle: saline with Tween-80) 98 % of control.
Turning to `Oc1cccc(N2CCN(c3cccc(O)c3)CC2)c1`, the T/C runs as follows: under setting [21], 91 % of control; under setting [22], 89 % of control.
